The values below come from ChEMBL document CHEMBL5137074 (J Med Chem, 2022).

In data set [1] the target is Cytochrome P450 2D6 (Homo sapiens, UniProt P10635). As to the kind of experiment: Inhibition of CYP2D6 (unknown origin).
Data set [2] can be described thus: Plasma protein binding in rat at 1 uM.
For data set [3] the following is noted: rat, in vivo, iv, 1 mg/kg, 24 h.
Data set [4] is described as follows: Apparent permeability across apical to basolateral side in human Caco-2 cells. In general terms: Caco-2 monolayers are a common model of the intestinal barrier.
Data set [5] can be described thus: Metabolic stability in human hepatocytes assessed as intrinsic clearance measured per 10^6 cells.
Data set [6] concerns the target Cytochrome P450 2C9 (Homo sapiens, UniProt P11712). The experiment in a line: Inhibition of CYP2C9 (unknown origin).
For data set [7] the following is noted: rat, in vivo, po, 5 mg/kg, 24 h.
Data set [8] addresses Cytochrome P450 3A4 (Homo sapiens, UniProt P08684). As to the kind of experiment: Inhibition of CYP3A4 (unknown origin).
Data set [9] has as its target Wee1-like protein kinase (Homo sapiens, UniProt P30291). As to the kind of experiment: Inhibition of WEE1 (unknown origin).
For data set [10], the target named is T1, Membrane-associated tyrosine- and threonine-specific cdc2-inhibitory kinase (Homo sapiens, UniProt Q99640).
T1 sequence (Q99640 whole entry): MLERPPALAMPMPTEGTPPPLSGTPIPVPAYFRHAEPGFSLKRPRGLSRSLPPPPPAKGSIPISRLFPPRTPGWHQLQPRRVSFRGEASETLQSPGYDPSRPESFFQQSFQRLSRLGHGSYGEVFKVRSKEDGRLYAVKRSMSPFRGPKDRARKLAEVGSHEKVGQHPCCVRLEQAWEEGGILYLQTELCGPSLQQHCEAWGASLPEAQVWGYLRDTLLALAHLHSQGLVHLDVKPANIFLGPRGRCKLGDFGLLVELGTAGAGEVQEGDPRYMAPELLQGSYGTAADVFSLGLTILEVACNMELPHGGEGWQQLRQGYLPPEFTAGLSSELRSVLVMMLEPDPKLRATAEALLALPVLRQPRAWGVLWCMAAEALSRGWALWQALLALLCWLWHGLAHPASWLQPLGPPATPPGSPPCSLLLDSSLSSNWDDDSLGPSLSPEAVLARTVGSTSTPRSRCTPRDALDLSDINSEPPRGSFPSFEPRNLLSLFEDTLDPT

Chain of Wee1-like protein kinase (P30291 whole entry): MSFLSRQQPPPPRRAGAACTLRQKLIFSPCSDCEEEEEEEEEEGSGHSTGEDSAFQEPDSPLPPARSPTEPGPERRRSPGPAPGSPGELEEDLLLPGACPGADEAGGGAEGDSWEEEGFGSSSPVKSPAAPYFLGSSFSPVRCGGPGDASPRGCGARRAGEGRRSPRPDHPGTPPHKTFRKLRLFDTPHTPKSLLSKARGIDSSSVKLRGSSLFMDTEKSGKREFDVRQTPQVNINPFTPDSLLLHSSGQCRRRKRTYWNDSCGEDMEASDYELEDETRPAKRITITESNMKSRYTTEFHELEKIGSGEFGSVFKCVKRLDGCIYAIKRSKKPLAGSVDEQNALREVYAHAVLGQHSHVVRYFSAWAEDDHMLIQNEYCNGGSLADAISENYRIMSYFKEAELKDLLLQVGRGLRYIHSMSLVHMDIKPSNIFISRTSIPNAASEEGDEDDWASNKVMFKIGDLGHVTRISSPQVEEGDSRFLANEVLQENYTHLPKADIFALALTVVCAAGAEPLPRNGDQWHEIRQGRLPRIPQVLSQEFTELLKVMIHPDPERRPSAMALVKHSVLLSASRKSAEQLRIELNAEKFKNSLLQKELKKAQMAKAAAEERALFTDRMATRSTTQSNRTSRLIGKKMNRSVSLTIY
Chain of Cytochrome P450 2D6 (P10635 whole entry): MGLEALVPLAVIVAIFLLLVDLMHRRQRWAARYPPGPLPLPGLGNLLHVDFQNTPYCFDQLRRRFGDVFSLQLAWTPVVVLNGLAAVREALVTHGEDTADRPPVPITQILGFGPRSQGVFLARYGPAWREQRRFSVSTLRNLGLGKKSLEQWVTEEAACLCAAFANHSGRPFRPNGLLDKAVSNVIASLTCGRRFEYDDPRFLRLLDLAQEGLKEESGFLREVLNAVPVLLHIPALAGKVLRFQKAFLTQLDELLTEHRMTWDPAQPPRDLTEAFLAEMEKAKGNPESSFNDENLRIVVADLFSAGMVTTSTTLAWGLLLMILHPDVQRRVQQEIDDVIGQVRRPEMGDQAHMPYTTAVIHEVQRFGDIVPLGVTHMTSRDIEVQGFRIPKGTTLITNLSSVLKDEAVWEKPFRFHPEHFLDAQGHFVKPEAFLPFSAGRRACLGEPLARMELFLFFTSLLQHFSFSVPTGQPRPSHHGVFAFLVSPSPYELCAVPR
Chain of Cytochrome P450 3A4 (P08684 whole entry): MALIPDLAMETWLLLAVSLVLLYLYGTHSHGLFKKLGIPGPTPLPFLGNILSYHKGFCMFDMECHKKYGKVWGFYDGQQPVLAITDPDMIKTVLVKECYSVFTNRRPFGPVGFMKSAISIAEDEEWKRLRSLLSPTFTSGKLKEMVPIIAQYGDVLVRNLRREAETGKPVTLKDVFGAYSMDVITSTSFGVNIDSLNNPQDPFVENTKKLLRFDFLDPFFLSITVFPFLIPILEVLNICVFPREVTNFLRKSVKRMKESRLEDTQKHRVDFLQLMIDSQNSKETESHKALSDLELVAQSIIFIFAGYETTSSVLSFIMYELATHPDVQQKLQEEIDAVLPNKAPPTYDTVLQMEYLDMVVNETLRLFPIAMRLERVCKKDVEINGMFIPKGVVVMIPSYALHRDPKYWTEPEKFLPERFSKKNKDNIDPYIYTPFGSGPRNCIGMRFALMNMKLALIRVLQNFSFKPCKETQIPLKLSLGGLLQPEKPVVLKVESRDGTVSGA
Chain of Cytochrome P450 2C9 (P11712 whole entry): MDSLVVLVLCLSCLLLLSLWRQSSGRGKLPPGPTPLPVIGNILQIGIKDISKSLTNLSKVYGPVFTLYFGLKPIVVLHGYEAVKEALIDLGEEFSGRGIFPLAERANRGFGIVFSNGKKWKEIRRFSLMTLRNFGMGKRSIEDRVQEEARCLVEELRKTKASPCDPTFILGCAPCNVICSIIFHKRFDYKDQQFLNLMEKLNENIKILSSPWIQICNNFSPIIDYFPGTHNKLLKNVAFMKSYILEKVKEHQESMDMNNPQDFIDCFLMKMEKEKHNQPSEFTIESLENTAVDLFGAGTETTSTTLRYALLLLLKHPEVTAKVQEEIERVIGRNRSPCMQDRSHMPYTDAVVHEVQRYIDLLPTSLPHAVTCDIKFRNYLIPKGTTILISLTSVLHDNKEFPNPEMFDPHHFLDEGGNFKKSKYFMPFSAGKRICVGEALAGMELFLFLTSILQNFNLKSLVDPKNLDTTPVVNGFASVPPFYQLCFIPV

Consider `Cc1ccc(O)c(C)c1-n1c(N)c(C(N)=O)c2nc(N3CCOCC3)cnc21`, for which the half-maximal inhibitory concentration (IC50) in data set [1], in data set [6] and in data set [8] was over 30 µM throughout. The compound also came in with a PPB in [2] of 62.8%. Also, the CL free in [3] worked out at 151 mL/min/kg. Moreover, the Papp in data set [4] is on record as 5.8 10^-6 cm/s. Further, the CLH in data set [5] is under 3 µL/min. For the same compound, in [7], the F is 18%.

Consider `Cc1c(O)cccc1-n1c(N)c(C(N)=O)c2nc3ccccc3nc21`, for which half-maximal inhibition in data set [9] (IC50) required 2.2 µM. This lies in the single-digit micromolar range.

`Cc1ccccc1-n1c(N)c(C(N)=O)c2nc3ccccc3nc21`: the IC50 (commonly the concentration at which inhibition is half-maximal) in [10] is over 20 µM.

Regarding `NC(=O)c1c(N)n(-c2c(Cl)ccc(O)c2Cl)c2nc3ccccc3nc12`, the half-inhibitory concentration (IC50) in data set [9] was 0.22 µM.

For `Cc1ccc(O)c(C)c1-n1c(N)c(C(N)=O)c2nc3cccc(-c4ccnn4C)c3nc21`, in [10], the half-maximal inhibitory concentration (IC50) is under 0.003 µM.

As for `Cc1ccc(O)c(C)c1-n1c(N)c(C(N)=O)c2nc3ccccc3nc21`, in data set [9], the half-maximal inhibitory concentration (IC50) was determined as 0.58 µM. In other words, the sub-micromolar range.

`NC(=O)c1c(N)n(-c2cccc3[nH]ccc23)c2nc3ccccc3nc12` returned an IC50 in data set [10] of over 20 µM.

Regarding `Cc1ccc(N)cc1-n1c(N)c(C(N)=O)c2nc3ccccc3nc21`, the IC50 in [10] was over 20 µM.

In [10], `Cc1ccc(O)c(C)c1-n1c(N)c(C(N)=O)c2nc3cccc(Br)c3nc21` showed an IC50 of under 0.003 µM.

In data set [9], `Cc1c(O)ccc(Cl)c1-n1c(N)c(C(N)=O)c2nc3ccccc3nc21` showed an IC50 of 0.23 µM.

Turning to `Cc1ccc(O)c(C)c1-n1c(N)c(C(N)=O)c2nccnc21`, the concentration for half-maximal inhibition (IC50) in data set [1], in data set [6] and in [8] was over 30 µM in each case. In [2], this compound came in with a PPB of 81%. Further, the CL free in data set [3] came to 81 mL/min/kg. For the same compound, the Papp in [4] is reported as 19 10^-6 cm/s. Besides, the CLH in [5] is under 3 µL/min. This compound had a F in data set [7] of 56%.

Compound `Cc1ccc(Cl)c(C)c1-n1c(N)c(C(N)=O)c2nc3ccccc3nc21` returned an IC50 in [10] of over 20 µM.

With `Cc1ccc(C(F)F)cc1-n1c(N)c(C(N)=O)c2nc3ccccc3nc21`, in data set [10], the IC50 was over 20 µM.

`NC(=O)c1c(N)n(-c2cccc3[nH]ncc23)c2nc3ccccc3nc12` registered a half-maximal inhibitory concentration (IC50) in [9] of 5.2 µM.

For `NC(=O)c1c(N)n(-c2cccc3[nH]nnc23)c2nc3ccccc3nc12`, the half-maximal inhibitory concentration (IC50) in [10] is over 20 µM.

With `Cc1ccc(O)c(C)c1-n1c(N)c(C(N)=O)c2cc(Cl)c(C)nc21`, in data set [2], the PPB is reported as 93.1%. For the same compound, in [3], the CL free is 731 mL/min/kg. This compound also showed a F in data set [7] of 24%.

`Cc1ccc2[nH]ncc2c1-n1c(N)c(C(N)=O)c2nc3ccccc3nc21` yielded a half-maximal inhibitory concentration (IC50) in data set [9] of 3.2 µM.

With `Cc1ccc(O)c(C)c1-n1c(N)c(C(N)=O)c2nc3cccc(C4=CCCC4)c3nc21`, in data set [10], the IC50 was under 0.003 µM.

In [2], `Cc1ccc(O)c(C)c1-n1c(N)c(C(N)=O)c2cc(C3CC3)cnc21` had a PPB of 80.3%. Moreover, the CL free in data set [3] amounted to 170 mL/min/kg. In data set [7], this compound had an F of 28%.

In turn, `Cc1ccc(O)c(C)c1-n1c(N)c(C(N)=O)c2nc3cc(Br)ccc3nc21` had an IC50 in data set [10] of under 0.003 µM.

With `NC(=O)c1c(N)n(-c2cccc3[nH]cnc23)c2nc3ccccc3nc12`, the half-inhibitory concentration (IC50) in data set [10] is over 20 µM.

The compound `Cc1cnc2c(c1)c(C(N)=O)c(N)n2-c1c(C)ccc(O)c1C` returned a PPB in [2] of 73.8%. The same compound showed a CL free in data set [3] of 76 mL/min/kg. The F in [7] is recorded as 62%.

Regarding `NC(=O)c1c(N)n(-c2cccc(O)c2)c2nc3ccccc3nc12`, the IC50 in data set [9] is 19.6 µM.
